Measurements published in ChEMBL document CHEMBL5465560, “Selectivity Literature for EUbOPEN Chemogenomic Library” (2024).

Tests used:
[1] = biological target: T1, Dual specificity mitogen-activated protein kinase kinase 6 (Homo sapiens) (UniProt P52564); assay: Selectivity interaction (KinomeScan (DiscoverX)) EUB0000666a MAP2K6; settings: at 10 µM
T1 sequence (whole entry): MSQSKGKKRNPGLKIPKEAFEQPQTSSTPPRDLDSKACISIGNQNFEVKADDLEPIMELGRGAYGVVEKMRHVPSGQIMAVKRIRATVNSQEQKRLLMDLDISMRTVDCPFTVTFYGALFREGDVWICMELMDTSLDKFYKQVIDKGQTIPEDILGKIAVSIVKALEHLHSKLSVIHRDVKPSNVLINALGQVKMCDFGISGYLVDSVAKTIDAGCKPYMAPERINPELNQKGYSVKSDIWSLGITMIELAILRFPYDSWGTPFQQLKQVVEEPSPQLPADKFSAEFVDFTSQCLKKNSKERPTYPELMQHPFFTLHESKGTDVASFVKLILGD

[2] = biological target: Tyrosine-protein kinase receptor UFO (Homo sapiens) (UniProt P30530); assay: Selectivity interaction (KinomeScan (DiscoverX)) EUB0000229b AXL; settings: at 10 µM
[3] = biological target: Non-receptor tyrosine-protein kinase TYK2 (Homo sapiens, UniProt P29597); assay: Selectivity interaction (KinomeScan (DiscoverX)) EUB0001079a TYK2; settings: at 1 µM
[4] = biological target: High affinity nerve growth factor receptor (Homo sapiens, UniProt P04629); assay: Selectivity interaction (SelectScreen Kinase Profiling (Thermo Fisher Scientific)) EUB0001558a NTRK1; settings: at 1 µM
[5] = biological target: Protein kinase C eta type (Homo sapiens) (UniProt P24723); settings: at 10 µM
[6] = biological target: T2, SNF-related serine/threonine-protein kinase (Homo sapiens) (UniProt Q9NRH2); assay: Selectivity interaction (ActivX KiNativ screen (kinase selectivity in THP-1 cell lysates)) EUB0000639a SNRK; type: subcellular; settings: lysate, at 0.2 µM
T2 sequence (whole entry): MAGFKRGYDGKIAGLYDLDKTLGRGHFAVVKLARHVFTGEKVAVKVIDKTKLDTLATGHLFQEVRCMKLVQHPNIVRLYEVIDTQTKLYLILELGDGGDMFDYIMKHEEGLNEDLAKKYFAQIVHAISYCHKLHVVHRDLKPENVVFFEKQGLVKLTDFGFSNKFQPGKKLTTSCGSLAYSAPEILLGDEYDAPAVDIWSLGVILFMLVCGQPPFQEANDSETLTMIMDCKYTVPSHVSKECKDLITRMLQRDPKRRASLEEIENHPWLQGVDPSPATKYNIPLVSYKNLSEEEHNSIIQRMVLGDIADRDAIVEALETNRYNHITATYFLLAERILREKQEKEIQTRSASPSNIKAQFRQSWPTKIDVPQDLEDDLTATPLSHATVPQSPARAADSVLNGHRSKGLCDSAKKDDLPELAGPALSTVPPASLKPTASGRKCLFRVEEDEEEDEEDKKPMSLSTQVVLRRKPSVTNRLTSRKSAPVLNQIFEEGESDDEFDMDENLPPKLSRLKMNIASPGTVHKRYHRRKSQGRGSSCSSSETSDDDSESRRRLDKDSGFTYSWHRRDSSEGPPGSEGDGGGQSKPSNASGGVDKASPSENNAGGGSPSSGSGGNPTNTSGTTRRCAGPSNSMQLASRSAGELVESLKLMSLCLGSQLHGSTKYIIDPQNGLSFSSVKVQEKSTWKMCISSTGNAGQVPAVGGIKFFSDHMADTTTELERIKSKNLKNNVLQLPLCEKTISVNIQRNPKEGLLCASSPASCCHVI

[7] = biological target: Tyrosine-protein kinase SYK (Homo sapiens, UniProt P43405); assay: Selectivity interaction (ActivX KiNativ screen (kinase selectivity in THP-1 cell lysates)) EUB0000639a SYK; type: subcellular; settings: lysate, at 0.04 µM
[8] = biological target: Tyrosine-protein kinase ABL1 (Homo sapiens, UniProt P00519); assay: Selectivity interaction (ActivX KiNativ screen (kinase selectivity in THP-1 cell lysates)) EUB0000639a ABL1; type: subcellular; settings: lysate, at 0.2 µM
[9] = biological target: Serine/threonine-protein kinase SMG1 (Homo sapiens) (UniProt Q96Q15); assay: Selectivity interaction (ActivX KiNativ screen (kinase selectivity in THP-1 cell lysates)) EUB0000639a SMG1; type: subcellular; settings: lysate, at 0.2 µM
[10] = biological target: T3, Interleukin-1 receptor-associated kinase 3 (Homo sapiens) (UniProt Q9Y616); assay: Selectivity interaction (KinomeScan (DiscoverX)) EUB0000595a IRAK3; settings: at 10 µM
T3 sequence (whole entry): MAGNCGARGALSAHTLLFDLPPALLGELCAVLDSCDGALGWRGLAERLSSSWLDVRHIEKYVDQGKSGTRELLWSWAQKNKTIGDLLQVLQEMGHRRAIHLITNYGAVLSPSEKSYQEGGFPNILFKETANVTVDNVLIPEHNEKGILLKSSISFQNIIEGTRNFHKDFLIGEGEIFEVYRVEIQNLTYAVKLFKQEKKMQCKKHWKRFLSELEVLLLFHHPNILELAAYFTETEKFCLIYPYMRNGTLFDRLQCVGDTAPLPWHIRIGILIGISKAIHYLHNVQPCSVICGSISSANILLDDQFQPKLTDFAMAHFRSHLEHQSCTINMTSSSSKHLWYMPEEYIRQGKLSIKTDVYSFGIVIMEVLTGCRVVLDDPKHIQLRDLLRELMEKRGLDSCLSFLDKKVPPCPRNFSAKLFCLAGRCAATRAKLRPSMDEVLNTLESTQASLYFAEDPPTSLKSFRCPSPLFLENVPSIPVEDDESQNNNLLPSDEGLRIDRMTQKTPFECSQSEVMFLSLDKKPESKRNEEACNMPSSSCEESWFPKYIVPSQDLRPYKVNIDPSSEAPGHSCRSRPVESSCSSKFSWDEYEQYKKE

[11] = biological target: Serine/threonine-protein kinase Nek6 (Homo sapiens) (UniProt Q9HC98); assay: Selectivity interaction (KinomeScan (DiscoverX)) EUB0000655a NEK6; settings: at 10 µM
[12] = biological target: T4, Alpha-1B adrenergic receptor (Homo sapiens) (UniProt P35368); assay: Selectivity interaction (Panel of kinases, GPCRs, ion channels and transporters (enzymatic assay)) EUB0000223bCl ADRA1B
T4 sequence (whole entry): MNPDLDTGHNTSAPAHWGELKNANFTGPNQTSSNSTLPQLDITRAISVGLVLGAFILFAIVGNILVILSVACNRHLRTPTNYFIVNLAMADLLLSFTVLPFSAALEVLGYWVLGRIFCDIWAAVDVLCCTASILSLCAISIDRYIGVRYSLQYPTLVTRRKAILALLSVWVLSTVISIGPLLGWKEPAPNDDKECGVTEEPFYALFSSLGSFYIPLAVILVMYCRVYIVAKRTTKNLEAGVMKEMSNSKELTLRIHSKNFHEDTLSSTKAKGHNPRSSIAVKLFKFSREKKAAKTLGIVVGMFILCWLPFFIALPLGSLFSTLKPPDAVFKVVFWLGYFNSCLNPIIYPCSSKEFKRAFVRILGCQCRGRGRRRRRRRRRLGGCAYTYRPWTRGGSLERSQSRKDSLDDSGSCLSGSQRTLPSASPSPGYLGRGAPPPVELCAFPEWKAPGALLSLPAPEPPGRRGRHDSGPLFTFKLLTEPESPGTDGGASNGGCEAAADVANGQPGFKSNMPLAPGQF

Sequence of Tyrosine-protein kinase ABL1 (P00519 whole entry): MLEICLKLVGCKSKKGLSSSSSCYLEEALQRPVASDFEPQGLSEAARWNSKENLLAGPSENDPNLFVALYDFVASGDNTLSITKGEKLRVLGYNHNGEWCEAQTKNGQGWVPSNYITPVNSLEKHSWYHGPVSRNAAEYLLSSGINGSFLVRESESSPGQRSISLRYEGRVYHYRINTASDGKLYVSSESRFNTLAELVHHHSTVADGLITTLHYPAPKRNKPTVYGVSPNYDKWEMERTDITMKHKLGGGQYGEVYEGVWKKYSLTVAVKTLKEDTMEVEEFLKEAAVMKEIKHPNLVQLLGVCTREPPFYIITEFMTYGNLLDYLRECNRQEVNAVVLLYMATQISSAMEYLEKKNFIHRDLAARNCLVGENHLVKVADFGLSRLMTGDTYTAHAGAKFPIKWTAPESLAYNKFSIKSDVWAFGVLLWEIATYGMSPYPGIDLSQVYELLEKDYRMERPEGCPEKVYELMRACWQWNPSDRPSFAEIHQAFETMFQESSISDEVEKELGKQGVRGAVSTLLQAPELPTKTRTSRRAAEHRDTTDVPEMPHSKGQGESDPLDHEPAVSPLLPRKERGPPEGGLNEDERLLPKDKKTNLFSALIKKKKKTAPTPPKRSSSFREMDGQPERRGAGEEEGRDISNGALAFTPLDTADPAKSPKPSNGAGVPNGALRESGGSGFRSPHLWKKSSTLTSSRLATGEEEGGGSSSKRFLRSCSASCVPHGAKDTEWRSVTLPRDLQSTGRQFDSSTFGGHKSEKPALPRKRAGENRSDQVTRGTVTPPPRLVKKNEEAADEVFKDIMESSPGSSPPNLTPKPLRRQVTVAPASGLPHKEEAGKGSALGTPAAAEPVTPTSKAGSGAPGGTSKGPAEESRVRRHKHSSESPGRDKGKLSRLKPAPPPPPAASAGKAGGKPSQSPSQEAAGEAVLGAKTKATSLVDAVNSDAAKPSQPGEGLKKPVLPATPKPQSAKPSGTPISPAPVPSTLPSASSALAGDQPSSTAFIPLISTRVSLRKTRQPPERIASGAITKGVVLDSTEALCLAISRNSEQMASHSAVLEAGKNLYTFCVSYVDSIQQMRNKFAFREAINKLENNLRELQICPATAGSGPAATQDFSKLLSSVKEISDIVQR
Sequence of Serine/threonine-protein kinase SMG1 (Homo sapiens) (Q96Q15 whole entry): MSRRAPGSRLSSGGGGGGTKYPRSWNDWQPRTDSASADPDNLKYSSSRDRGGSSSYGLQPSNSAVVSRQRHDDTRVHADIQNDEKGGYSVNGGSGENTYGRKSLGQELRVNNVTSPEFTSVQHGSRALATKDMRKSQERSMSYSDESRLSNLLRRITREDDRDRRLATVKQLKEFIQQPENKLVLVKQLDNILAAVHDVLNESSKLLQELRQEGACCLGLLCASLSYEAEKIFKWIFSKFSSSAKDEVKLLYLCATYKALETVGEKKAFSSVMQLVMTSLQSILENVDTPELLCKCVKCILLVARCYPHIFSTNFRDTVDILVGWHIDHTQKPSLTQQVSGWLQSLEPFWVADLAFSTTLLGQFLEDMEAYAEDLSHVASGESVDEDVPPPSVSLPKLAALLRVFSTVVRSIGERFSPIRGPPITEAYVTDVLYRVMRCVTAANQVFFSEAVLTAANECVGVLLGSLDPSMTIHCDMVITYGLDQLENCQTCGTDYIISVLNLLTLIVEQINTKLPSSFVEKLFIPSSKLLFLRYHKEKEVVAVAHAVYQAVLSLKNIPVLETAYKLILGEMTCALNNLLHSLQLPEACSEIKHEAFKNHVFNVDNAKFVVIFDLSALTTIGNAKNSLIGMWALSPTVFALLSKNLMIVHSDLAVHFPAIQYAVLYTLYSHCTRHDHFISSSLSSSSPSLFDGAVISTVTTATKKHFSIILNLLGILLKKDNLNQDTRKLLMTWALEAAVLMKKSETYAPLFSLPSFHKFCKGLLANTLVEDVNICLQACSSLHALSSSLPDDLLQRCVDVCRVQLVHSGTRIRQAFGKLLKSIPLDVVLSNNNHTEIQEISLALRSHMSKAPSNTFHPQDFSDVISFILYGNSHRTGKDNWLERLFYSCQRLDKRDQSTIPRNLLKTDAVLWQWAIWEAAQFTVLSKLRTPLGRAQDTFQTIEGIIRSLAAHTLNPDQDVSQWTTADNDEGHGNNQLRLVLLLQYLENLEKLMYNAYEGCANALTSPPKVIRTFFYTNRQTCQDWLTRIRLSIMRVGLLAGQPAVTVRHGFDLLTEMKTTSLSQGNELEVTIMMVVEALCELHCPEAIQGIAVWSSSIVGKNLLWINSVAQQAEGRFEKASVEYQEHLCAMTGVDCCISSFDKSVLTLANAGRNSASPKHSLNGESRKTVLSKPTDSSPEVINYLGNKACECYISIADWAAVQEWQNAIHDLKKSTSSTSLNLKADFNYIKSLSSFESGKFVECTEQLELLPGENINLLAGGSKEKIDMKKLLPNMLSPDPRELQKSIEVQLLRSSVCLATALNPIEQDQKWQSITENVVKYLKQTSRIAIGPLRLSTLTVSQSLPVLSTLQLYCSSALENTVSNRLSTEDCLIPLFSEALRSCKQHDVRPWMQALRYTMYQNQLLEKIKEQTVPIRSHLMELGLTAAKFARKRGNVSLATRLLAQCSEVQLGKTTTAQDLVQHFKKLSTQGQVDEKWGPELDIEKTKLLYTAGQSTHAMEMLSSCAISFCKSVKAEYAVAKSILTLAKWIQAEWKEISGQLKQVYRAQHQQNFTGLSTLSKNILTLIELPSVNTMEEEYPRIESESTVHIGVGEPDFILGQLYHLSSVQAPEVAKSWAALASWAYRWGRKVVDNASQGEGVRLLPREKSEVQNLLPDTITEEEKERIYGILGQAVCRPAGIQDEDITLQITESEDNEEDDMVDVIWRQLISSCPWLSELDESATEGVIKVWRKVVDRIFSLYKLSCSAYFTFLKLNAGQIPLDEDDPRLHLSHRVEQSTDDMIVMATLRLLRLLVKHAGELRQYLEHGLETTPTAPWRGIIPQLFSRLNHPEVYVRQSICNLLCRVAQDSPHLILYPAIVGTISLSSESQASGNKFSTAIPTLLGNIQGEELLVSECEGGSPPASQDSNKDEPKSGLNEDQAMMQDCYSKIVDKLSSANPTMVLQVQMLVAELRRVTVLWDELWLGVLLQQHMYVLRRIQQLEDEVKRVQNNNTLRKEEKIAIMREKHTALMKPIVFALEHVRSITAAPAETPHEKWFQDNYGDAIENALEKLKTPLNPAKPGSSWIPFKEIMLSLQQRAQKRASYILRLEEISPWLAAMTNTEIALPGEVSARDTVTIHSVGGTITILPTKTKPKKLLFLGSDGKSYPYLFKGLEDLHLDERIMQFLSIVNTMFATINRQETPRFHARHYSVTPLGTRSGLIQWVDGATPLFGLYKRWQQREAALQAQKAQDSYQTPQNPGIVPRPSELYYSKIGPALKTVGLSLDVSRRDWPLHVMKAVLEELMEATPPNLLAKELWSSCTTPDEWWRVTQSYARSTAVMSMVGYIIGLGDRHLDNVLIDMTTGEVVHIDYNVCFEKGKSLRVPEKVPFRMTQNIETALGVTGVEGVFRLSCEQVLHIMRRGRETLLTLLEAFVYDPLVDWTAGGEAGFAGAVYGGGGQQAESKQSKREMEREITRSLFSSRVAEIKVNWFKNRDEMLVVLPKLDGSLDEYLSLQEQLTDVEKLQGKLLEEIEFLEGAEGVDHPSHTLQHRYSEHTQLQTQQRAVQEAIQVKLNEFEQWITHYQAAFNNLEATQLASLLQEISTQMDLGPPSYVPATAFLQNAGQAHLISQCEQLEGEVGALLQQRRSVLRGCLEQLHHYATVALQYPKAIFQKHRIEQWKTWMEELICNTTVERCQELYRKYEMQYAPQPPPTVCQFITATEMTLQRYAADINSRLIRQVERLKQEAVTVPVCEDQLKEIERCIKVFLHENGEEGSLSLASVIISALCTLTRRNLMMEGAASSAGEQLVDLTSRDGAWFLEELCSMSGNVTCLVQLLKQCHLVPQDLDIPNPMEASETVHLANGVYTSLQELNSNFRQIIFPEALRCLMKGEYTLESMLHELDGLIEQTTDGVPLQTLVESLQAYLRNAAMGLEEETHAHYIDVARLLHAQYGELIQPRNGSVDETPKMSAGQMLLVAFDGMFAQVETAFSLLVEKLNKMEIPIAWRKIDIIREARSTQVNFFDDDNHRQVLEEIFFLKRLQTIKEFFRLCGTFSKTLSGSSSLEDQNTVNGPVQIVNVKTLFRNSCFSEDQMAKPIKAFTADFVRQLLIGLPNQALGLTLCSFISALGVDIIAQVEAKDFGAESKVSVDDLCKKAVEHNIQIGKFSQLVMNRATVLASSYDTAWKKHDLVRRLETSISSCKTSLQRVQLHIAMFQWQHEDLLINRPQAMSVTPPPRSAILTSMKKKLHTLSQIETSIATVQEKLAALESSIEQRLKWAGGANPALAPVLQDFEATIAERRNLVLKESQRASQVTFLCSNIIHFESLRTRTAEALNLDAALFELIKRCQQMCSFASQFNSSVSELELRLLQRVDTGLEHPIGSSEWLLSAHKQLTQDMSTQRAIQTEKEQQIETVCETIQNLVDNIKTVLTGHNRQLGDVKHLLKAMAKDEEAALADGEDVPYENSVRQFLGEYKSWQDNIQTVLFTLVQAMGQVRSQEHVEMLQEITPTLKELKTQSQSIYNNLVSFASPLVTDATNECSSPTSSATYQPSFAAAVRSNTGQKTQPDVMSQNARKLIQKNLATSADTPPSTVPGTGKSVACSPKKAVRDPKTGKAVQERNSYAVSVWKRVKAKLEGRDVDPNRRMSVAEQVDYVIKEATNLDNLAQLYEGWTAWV
Sequence of Serine/threonine-protein kinase Nek6 (Homo sapiens) (Q9HC98 whole entry): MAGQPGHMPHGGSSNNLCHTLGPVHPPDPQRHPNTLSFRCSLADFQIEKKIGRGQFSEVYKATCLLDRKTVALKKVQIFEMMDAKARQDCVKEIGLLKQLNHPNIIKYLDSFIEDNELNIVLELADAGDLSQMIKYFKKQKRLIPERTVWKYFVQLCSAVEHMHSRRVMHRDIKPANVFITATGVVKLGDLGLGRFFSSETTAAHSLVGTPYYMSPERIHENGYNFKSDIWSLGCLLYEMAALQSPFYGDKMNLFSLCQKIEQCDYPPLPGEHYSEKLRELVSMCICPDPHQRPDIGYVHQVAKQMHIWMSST

Structure (SMILES): O=C(NOC[C@H](O)CO)c1ccc(F)c(F)c1Nc1ccc(I)cc1F
- % of control [1]: 100%

Structure (SMILES): COc1cc(N(C)c2ccnc3ccc(C(F)(F)F)cc23)cc(OC)c1OC
- % binding [2]: 86%

Structure (SMILES): Nc1cnc(N2CCc3cc(S(=O)(=O)Nc4c(F)cc(Cl)cc4F)cc(N4CCCC4=O)c32)nc1 [TP-020n]
- % of control [3]: 100%

Structure (SMILES): CC(C)(O)[C@H](F)CN1Cc2cc(NC(=O)c3cnn4cccnc34)c(N3CCOCC3)cc2C1=O
- % of inhibition [4]: 71%

Structure (SMILES): CCN(CC)CCCCNc1ncc2cc(-c3cc(OC)cc(OC)c3)c(NC(=O)NC(C)(C)C)nc2n1
- % of control [5]: 100%

Structure (SMILES): CC[C@@H]1[C@H](F)C(=O)N[C@@H]1COc1nccc2cc(C(N)=O)c(OC)cc12 [ZIMLOVISERTIB]
- % of inhibition [6]: 8.5%
- % of inhibition [7]: 5.5%
- % of inhibition [8]: -42.6%
- % of inhibition [9]: 0%

Structure (SMILES): COCC(=O)NC/C=C/c1ccc2ncnc(Nc3ccc(Oc4ccc(C)nc4)c(C)c3)c2c1 [CP-724714]
- % of control [10]: 82%

Structure (SMILES): CN(C)CCOc1ccc(-c2nc(-c3ccncc3)c(-c3ccc4c(c3)CC/C4=N\O)[nH]2)cc1
- % of control [11]: 100%

Structure (SMILES): COc1cc(C(=O)N2CC[C@@H](O)[C@@H](N)C2)cc2nc(-c3cc4ccccc4n3CC3CC3)n(C)c12
- pXC50 [12]: 4.9 M
